From ChEMBL document CHEMBL1250454, “Oral oxytocin antagonists” (J Med Chem, 2010)
In brackets after ≈: the same amount, converted by molar mass.

Tests used:
Vasopressin V1a receptor [1] = molecular target: T1, Vasopressin V1a receptor (Homo sapiens, UniProt P37288); assay: Displacement of [3H]vasopressin from human vasopressin V1a receptor expressed in CHO cells at 10 uM; type: cell-based
Oxytocin receptor [2] = molecular target: T2, Oxytocin receptor (Homo sapiens, UniProt P30559); assay: Displacement of [3H]-oxytocin from human oxytocin receptor expressed in HEK293-EBNA cells; type: cell-based
T2 sequence (P30559 whole entry): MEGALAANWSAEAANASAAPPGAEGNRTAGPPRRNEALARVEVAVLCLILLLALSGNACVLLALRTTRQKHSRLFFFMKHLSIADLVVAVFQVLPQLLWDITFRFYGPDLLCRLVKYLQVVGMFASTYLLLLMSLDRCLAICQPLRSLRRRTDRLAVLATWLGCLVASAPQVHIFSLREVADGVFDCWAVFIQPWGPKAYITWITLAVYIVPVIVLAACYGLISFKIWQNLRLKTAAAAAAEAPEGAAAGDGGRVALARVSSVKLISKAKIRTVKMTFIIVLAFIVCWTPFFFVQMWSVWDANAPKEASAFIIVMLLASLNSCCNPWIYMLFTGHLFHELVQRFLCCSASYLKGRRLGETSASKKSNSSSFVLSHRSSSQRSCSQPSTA

Homo sapiens [3] = species on record: Homo sapiens; assay: Selectivity ratio of Ki for human oxytocin receptor Ki for human vasopressin V1a receptor
[4] = Oral bioavailability in dog; type: ADME, organism-based, Canis lupus familiaris; conditions: in vivo
Vasopressin V2 receptor [5] = molecular target: T3, Vasopressin V2 receptor (Homo sapiens, UniProt P30518); assay: Displacement of [3H]vasopressin from vasopressin V2 receptor in human kidney tissue
Oxytocin receptor [6] = molecular target: T2, Oxytocin receptor; assay: Displacement of [3H]-oxytocin from oxytocin receptor in human uterus tissue; type: tissue-based
Homo sapiens [7] = species on record: Homo sapiens; assay: Selectivity ratio of Ki for human oxytocin receptor Ki for human vasopressin V2 receptor
[8] = Aqueous solubility of the compound at pH 5.2; type: physicochemical; conditions: buffer
Oxytocin receptor [9] = molecular target: T4, Oxytocin receptor (Rattus norvegicus, UniProt P70536); assay: Displacement of [3H]-oxytocin from oxytocin receptor in rat uterus tissue; type: tissue-based
T4 sequence (P70536 whole entry): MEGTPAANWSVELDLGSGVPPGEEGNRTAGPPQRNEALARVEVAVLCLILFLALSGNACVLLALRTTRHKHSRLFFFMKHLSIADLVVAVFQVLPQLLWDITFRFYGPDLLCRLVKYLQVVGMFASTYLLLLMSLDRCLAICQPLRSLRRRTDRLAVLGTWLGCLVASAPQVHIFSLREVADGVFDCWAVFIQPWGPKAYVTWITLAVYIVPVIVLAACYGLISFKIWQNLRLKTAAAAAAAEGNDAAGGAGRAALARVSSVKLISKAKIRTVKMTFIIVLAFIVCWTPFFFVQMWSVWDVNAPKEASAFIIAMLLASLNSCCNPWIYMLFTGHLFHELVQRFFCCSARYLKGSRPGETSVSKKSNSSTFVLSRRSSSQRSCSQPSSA

Vasopressin V2 receptor [10] = molecular target: Vasopressin V2 receptor (Rattus norvegicus, UniProt Q00788); assay: Displacement of [3H]vasopressin from vasopressin V2 receptor in rat kidney tissue
Rattus norvegicus [11] = assay: Inhibition of oxytocin-induced uterine contraction in iv dosed rat; type: functional
[12] = Oral bioavailability in human; type: ADME, organism-based; conditions: in vivo
[13] = Oral bioavailability in rat; type: ADME, organism-based; conditions: in vivo
[14] = Oral bioavailability in chimpanzee; type: ADME, organism-based, Pan troglodytes; conditions: in vivo
Vasopressin V1a receptor [15] = molecular target: T1, Vasopressin V1a receptor; assay: Displacement of [3H]vasopressin from vasopressin V1a receptor in human liver tissue
Target sequence in this assay (P37288 whole entry): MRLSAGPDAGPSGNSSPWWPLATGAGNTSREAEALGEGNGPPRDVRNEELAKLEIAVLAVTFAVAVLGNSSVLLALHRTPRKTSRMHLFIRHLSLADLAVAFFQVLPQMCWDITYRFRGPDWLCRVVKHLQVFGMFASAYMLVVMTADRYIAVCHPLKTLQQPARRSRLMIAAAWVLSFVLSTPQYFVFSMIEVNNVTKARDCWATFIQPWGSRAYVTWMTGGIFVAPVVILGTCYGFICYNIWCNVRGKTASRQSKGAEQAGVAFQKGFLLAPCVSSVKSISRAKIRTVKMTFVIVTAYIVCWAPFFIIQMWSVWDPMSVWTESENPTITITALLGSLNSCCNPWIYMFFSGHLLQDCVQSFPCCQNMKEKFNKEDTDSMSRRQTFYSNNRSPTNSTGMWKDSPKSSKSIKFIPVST

Rattus norvegicus [16] = assay: Inhibition of oxytocin-induced uterine contraction in intraduodenally dosed rat; type: functional
Vasopressin V1a receptor [17] = molecular target: Vasopressin V1a receptor (Rattus norvegicus, UniProt P30560); assay: Displacement of [3H]vasopressin from vasopressin V1a receptor in rat liver tissue
Rattus norvegicus [18] = assay: Inhibition of oxytocin-induced uterine contraction in iv dosed non-pregnant anaesthetized rat; type: functional
Vasopressin V2 receptor [19] = molecular target: T3, Vasopressin V2 receptor; assay: Displacement of [3H]vasopressin from human vasopressin V2 receptor expressed in CHO cells; type: cell-based
Vasopressin V1b receptor [20] = molecular target: T5, Vasopressin V1b receptor (Homo sapiens, UniProt P47901); assay: Displacement of [3H]vasopressin from human vasopressin V1b receptor expressed in CHO cells; type: cell-based
T5 sequence (P47901 whole entry): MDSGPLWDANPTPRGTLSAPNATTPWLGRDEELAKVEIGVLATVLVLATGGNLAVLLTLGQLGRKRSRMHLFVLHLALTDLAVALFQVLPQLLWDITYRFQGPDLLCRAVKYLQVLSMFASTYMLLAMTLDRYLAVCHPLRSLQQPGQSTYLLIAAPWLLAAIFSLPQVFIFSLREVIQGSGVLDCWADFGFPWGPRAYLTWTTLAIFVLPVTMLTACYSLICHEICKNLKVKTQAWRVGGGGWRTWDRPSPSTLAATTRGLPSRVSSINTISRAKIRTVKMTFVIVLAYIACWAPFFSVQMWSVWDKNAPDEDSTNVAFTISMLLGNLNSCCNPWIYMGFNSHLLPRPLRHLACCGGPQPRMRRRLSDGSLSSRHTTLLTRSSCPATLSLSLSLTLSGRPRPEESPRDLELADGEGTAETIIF

Vasopressin V1a receptor [21] = molecular target: T1, Vasopressin V1a receptor; assay: Displacement of [3H]vasopressin from human vasopressin V1a receptor expressed in CHO cells at 10 uM
Target sequence in this assay (P37288 whole entry, looked up): as the sequence (P37288 whole entry) above

[22] = Half life in rat; type: ADME, organism-based; conditions: in vivo
[23] = Clearance in rat; type: ADME, organism-based; conditions: in vivo
[24] = Aqueous solubility of the compound at pH 5; type: physicochemical
[25] = Half life in human; type: ADME, organism-based; conditions: in vivo
Homo sapiens [26] = assay: Toxicity in human assessed as tolerated dosed; type: organism-based; conditions: in vivo
[27] = Solubility of the compound at pH 7.4; type: physicochemical; conditions: buffer
[28] = Clearance in human; type: ADME, organism-based; conditions: in vivo
[29] = Clearance in dog; type: ADME, organism-based, Canis lupus familiaris; conditions: in vivo
Oxytocin receptor [30] = molecular target: T2, Oxytocin receptor; assay: Displacement of [3H]-oxytocin from human oxytocin receptor expressed in CHO cells; type: cell-based
Rattus norvegicus [31] = assay: Inhibition of oxytocin-induced uterine contraction in pregnant rat at 60 mg/kg, po; type: functional
Vasopressin V1a receptor [32] = molecular target: T1, Vasopressin V1a receptor; assay: Displacement of [3H]vasopressin from human vasopressin V1a receptor expressed in CHO cells; type: cell-based
Target sequence in this assay (P37288 whole entry): as the sequence (P37288 whole entry) above

[33] = Protein binding in human serum; type: ADME, cell-free; conditions: read-out: PB (converted)
Rattus norvegicus [34] = assay: Inhibition of oxytocin-induced uterine contraction in non-pregnant rat at 30 mg/kg, po; type: functional
Rattus norvegicus [35] = assay: Inhibition of oxytocin-induced uterine contraction in po dosed rat; type: functional
Oxytocin receptor [36] = molecular target: T4, Oxytocin receptor; assay: Displacement of [3H]-oxytocin from rat oxytocin receptor expressed in CHO cells; type: cell-based
Vasopressin V2 receptor [37] = molecular target: T3, Vasopressin V2 receptor; assay: Displacement of [3H]vasopressin from human vasopressin V2 receptor
Vasopressin V1b receptor [38] = molecular target: T5, Vasopressin V1b receptor; assay: Displacement of [3H]vasopressin from human vasopressin V1b receptor
Vasopressin V1a receptor [39] = molecular target: T1, Vasopressin V1a receptor; assay: Displacement of [3H]vasopressin from human vasopressin V1a receptor
Target sequence in this assay (P37288 whole entry): as the sequence (P37288 whole entry) above

T3 sequence (P30518 whole entry): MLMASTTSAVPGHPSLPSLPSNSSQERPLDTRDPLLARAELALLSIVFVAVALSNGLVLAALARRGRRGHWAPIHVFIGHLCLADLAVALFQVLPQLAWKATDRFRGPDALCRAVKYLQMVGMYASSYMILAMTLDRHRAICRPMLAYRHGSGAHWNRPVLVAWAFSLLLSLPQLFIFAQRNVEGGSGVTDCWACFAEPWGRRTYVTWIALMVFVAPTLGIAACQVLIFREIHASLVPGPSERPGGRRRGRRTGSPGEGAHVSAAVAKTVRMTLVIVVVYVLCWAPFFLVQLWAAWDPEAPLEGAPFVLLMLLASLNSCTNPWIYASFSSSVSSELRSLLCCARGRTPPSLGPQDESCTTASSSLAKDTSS
Sequence of Vasopressin V2 receptor (Rattus norvegicus, UniProt Q00788) (Q00788 whole entry): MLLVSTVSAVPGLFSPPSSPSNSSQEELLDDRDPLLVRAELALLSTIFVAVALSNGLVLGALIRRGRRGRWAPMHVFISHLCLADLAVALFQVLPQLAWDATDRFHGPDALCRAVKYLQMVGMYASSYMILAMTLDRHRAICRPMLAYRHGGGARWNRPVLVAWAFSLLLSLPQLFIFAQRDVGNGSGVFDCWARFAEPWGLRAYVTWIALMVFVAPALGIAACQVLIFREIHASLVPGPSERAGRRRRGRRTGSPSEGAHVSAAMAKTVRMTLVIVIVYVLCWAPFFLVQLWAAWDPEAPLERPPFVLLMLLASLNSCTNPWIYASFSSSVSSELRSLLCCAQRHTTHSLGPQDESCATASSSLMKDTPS
Sequence of Vasopressin V1a receptor (Rattus norvegicus, UniProt P30560) (P30560 whole entry): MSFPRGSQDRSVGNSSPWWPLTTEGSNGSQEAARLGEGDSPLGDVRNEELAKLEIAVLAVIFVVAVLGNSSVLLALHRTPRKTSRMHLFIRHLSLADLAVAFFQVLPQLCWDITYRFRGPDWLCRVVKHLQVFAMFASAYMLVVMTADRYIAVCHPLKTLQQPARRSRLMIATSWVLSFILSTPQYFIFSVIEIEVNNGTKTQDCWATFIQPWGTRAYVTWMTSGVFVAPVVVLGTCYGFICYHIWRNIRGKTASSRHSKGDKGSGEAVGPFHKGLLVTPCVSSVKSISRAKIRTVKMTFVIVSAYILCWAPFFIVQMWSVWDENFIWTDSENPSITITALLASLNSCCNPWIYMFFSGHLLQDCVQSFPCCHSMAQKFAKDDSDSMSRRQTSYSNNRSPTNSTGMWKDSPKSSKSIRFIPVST

CO/N=C1/C[C@H](c2nc(C)no2)N(C(=O)c2ccc(-c3ccccc3C)cc2)C1 showed a Ki (Vasopressin V1a receptor [1]) of 60 nM and a Ki (Oxytocin receptor [2]) of 50 nM.
Cc1ccccc1N1CCN(S(=O)(=O)C[C@]23CC[C@H](C[C@@H]2NC(=O)[C@@H](N)CCS(C)(=O)=O)C3(C)C)CC1 gave a Ratio Ki (Homo sapiens [3]) of 14, a bioavailability [4] of 25% and a Ki (Vasopressin V2 receptor [5]) of 590 nM. The Ki (Oxytocin receptor [6]) was 13 nM, the Ratio Ki (Homo sapiens [7]) was 45 and the solubility [8] was 2.5 mg/kg. The Ki (Oxytocin receptor [9]) was 3.6 nM, the Ki (Vasopressin V2 receptor [10]) was 200 nM and the AD50 (Rattus norvegicus [11]) was 0.35 mg/kg. It also gave a bioavailability [12] of 20%, a bioavailability [13] of 35% and a bioavailability [14] of 21%. The Ki (Vasopressin V1a receptor [15]) was 180 nM, the AD50 (Rattus norvegicus [16]) was 7 mg/kg and the Ki (Vasopressin V1a receptor [17]) was 110 nM.
In the case of CCOc1ccc(S(=O)(=O)N(CC(=O)N/N=C2\C(=O)Nc3ccccc32)c2ccc(C)cc2)cc1, the Ratio Ki (Homo sapiens [3]) is reported as 100 and the ED50 (Rattus norvegicus [18]) is reported as 10 mg/kg.
In the case of COc1ccc(-n2c(C)nnc2-c2ccc(-c3ccccc3OC)cc2)cn1, the Ki (Vasopressin V2 receptor [19]) is reported as 500 nM, the Ki (Vasopressin V1a receptor [1]) is reported as 525 nM and the Ki (Oxytocin receptor [2]) is reported as 56 nM. For the same compound, the Ki (Vasopressin V1b receptor [20]) was over 10000 nM.
In the case of O=C(CN(c1ccccc1)S(=O)(=O)c1ccccc1)N/N=C1\C(=O)Nc2ccccc21, the inhibition (Vasopressin V1a receptor [21]) is reported as under 50%.
For COc1ccc(-n2c(C)nnc2-c2cnc(-c3ccc(F)cc3C)cn2)cn1, the half-life [22] was 1 h, the Ki (Vasopressin V1b receptor [20]) was over 10000 nM and the clearance [23] was 50 mL/min/kg. For the same compound, the solubility [24] was 6 µg/mL (≈ 15.9 µM).
With CC[C@H](C)[C@@H]1C(=O)N[C@H](C2Cc3ccccc3C2)C(=O)N1[C@@H](C(=O)N1CCOCC1)c1coc(C)n1 [RETOSIBAN] the bioavailability [13] was 100%.
Compound COCc1nnc(N2CC(Oc3ccc(F)cc3Cl)C2)n1-c1ccc(OC)nc1 has a half-life [25] of 12 h, a Ratio Ki (Homo sapiens [3]) of 118 and an Activity (Homo sapiens [26]) of 0.3 mg. The solubility [27] was 59 µg/mL (≈ 141 µM), the clearance [28] was over 8 mL/min/kg and the Ratio Ki (Homo sapiens [7]) was 1050. The Ki (Vasopressin V1b receptor [20]) was over 10000 nM, the clearance [23] was 36 mL/min/kg and the bioavailability [12] was 80%. For the same compound, the clearance [29] was 8 mL/min/kg.
CO/N=C1\C[C@@H](C(=O)NCC(O)c2ccccc2)N(C(=O)c2ccc(-c3ccccc3)cc2)C1 (stereo partly specified) gave an inhibition (Vasopressin V1a receptor [1]) of 68% and an IC50 (Oxytocin receptor [30]) of 260 nM.
CO/N=C1/C[C@@H](CO)N(C(=O)c2ccc(-c3ccccc3C)cc2)C1 [NOLASIBAN] showed an inhibition in vivo at 60 mg/kg (Rattus norvegicus [31]) of 40%, a Ki (Vasopressin V1a receptor [32]) of 330 nM and a bioavailability [13] of 55%. For the same compound, the fraction unbound [33] was 0.29, the inhibition in vivo at 30 mg/kg (Rattus norvegicus [34]) was 51% and the ED50 (Rattus norvegicus [35]) was 30 mg/kg. The Ki (Oxytocin receptor [36]) was 210 nM.
Compound CC(C)C[C@@H]1C(=O)N[C@H](C2Cc3ccccc3C2)C(=O)N1[C@@H](C(=O)NC(C)C)c1ccc(N(C)C)cc1 has a Ki (Vasopressin V2 receptor [37]) of over 79400 nM, a Ki (Vasopressin V1b receptor [38]) of over 50100 nM and a Ki (Vasopressin V1a receptor [39]) of over 39800 nM.
CC1(C)[C@@H]2CC[C@@]1(CS(=O)(=O)N1CCC3(C=Cc4ccccc43)CC1)[C@@](O)(CC(=O)O)C2 gave a Ratio Ki (Homo sapiens [3]) of 3, a Ki (Vasopressin V2 receptor [5]) of 5600 nM and a Ki (Oxytocin receptor [6]) of 530 nM. The Ratio Ki (Homo sapiens [7]) was 11, the Ki (Oxytocin receptor [9]) was 370 nM and the Ki (Vasopressin V2 receptor [10]) was 29000 nM. It also gave an AD50 (Rattus norvegicus [11]) of 10 mg/kg, a Ki (Vasopressin V1a receptor [15]) of 1600 nM and an AD50 (Rattus norvegicus [16]) of 30 mg/kg. For the same compound, the Ki (Vasopressin V1a receptor [17]) was 26000 nM.
